{
  "source": "paper PMC4072668",
  "about": "“Mass Spectrometric Detection and Characterization of Atypical Membrane-Bound Zinc-Sensitive Phosphatases Modulating GABAA Receptors” (PLoS ONE, 2014)",
  "key": {"alkaline phosphatase": {"tested_on": "alkaline phosphatase", "design": "method as in PMID 10898722", "settings": "cited from earlier work"}, "[1]": {"tested_on": "membrane-bound phosphatase activities of washed cortical membrane", "test": "LC-MS/MS phosphatase assay with effectors, N-terminal phosphopeptide pI2α1N-P as substrate", "type": "biochemical", "settings": "substrate pI2α1N-P; for IC50: 1 mM Mg2+, 30°C, 10 min, read-out: IC50", "procedure": "(§1) Phosphatasic activity of bovine, rat and human washed cortical membranes was measured by using synthetic phosphopeptides as substrates. Reactions were performed in presence of 50 µg/ml (total proteins) of washed cortical membrane, 10 mM Hepes-Tris pH 7.4 and 1 mM MgCl2. Enzymatic reactions were initiated by adding 10 µM of phosphopeptide incubated for 10 min at 30°C and stopped by adding ice-cold acetic acid at a final concentration of 10% (w/v). Following a 800 g centrifugation during 10 min at 4°C, the supernatants were analyzed by LC-MS/MS. […] For these reasons, and to avoid micro-capillary column obstruction we have preferentially used the micro-LC column to characterize the pharmacological profile of phosphatasic activities.\n(§2) Quantification of appearance of the native peptide and disappearance of the phosphopeptide in different conditions was performed using the calibration curve plotted using the Xcalibur software (P/N 64018-XCALI version 1.3). The calibration curve and linear regression were constructed using a series of standards, native and phosphorylated equimolar mixture, N- or C-terminal peptides at different concentrations 0.5, 1, 2, 5 and 10 µM (n = 2) in 10 mM Hepes pH 7.4, 1 mM Mg^2+ and 10% acetic acid, which was the same milieu condition as in the phosphatase assay after stopping reactions. The linear regression represents peak area of MS/MS chromatogram spectra depending on the peptide concentration (Figure S1).\n(§3) Different effectors were tested by addition to the incubation medium at variable concentration: the dicationic ions Mg^2+, Ca^2+, Zn^2+ were used as chloride, the polycation spermine as hydrochloride, the anion F^− as sodium fluoride (NaF), and the inhibitors of some known phosphatases okadaic acid and the two (+/−) enantiomers of p–bromotetramisole oxalate (p-Br-t). For the inhibitory effects, relative 50% inhibition concentration (IC50) values were either determined graphically with a log-scale for the concentration axis or by the ‘log (inhibitor) vs. response’ nonlinear fit of Prism 5 software (GraphPad), considering activity in the absence of inhibitor as 100%.\nFigure 4 Effects of various inhibitors on the membrane-bound phosphatase activities. […] Incubations were performed at 30°C during 10 min. The activities are expressed as a percentage of that of control samples without inhibitors. Inhibition profiles of PPase activities by okadaic acid were performed using N-terminal phosphopeptide (A) or C-terminal phosphopeptide (B) as substrate. The data points are means ± SEM of 3 experiments. The red arrows indicate the different IC50. […] Data points are the average ± SEM of duplicate assays. (D) Effect of Ca^2+ ions, fluoride (F^−) and spermine (SPM^4+) on PPase activity using N-terminal phosphopeptide as substrate."}, "[2]": {"tested_on": "membrane-bound phosphatase dephosphorylating GABAAR", "design": "method as in PMID 10762086", "settings": "cited from earlier work"}, "[3]": {"tested_on": "membrane-bound phosphatase activities of rat washed cortical membrane", "test": "LC-MS/MS phosphatase assay, Zn2+ profile, N-terminal phosphopeptide pI2α1N-P as substrate", "type": "biochemical", "settings": "for IC50: substrate pI2α1N-P 10 µM, 1 mM Mg2+, 30°C, 10 min, two-step fit", "procedure": "as §1, §2, §3\nAssays were performed in presence of rat washed cortical membrane at 50 µg/ml of total protein concentration, with increasing amounts of Zn^2+ ions in 10 mM Hepes buffer pH 7.4 with 1 mM Mg^2+ in presence of. Incubations were performed at 30°C during 10 min. The activities are expressed as a percentage of that of control samples. […] (H) PPase activity at very low Zn^2+ concentrations (1 pM–200 nM). The IC50 values are mentioned with their 95% confidence intervals and calculated from nonlinear regression curve fits using GraphPad Prism 5."}, "[4]": {"tested_on": "membrane-bound phosphatase activities of rat washed cortical membrane", "test": "LC-MS/MS phosphatase assay, Zn2+ profile, C-terminal phosphopeptide pI2α1C-P as substrate", "type": "biochemical", "settings": "for IC50: substrate pI2α1C-P 10 µM, 1 mM Mg2+, 30°C, 10 min, two-step fit", "procedure": "as §1, §2\nDifferent effectors were tested by addition to the incubation medium at variable concentration: the dicationic ions Mg^2+, Ca^2+, Zn^2+ were used as chloride, the polycation spermine as hydrochloride, the anion F^− as sodium fluoride (NaF), and the inhibitors of some known phosphatases okadaic acid and the two (+/−) enantiomers of p–bromotetramisole oxalate (p-Br-t). […]\nAssays were performed in presence of rat washed cortical membrane at 50 µg/ml of total protein concentration, with increasing amounts of Zn^2+ ions in 10 mM Hepes buffer pH 7.4 with 1 mM Mg^2+ in presence of. […] The activities are expressed as a percentage of that of control samples. […]"}, "[5]": {"tested_on": "GABAA receptor currents in pyramidal neurons", "design": "method as in PMID 15342727", "settings": "cited from earlier work"}, "[6]": {"tested_on": "membrane-bound phosphatase activities of washed cortical membranes", "test": "Enzyme kinetics of membrane-bound phosphatase activities with phosphopeptide substrates", "type": "biochemical", "settings": "for Km / Vmax: phosphopeptide as substrate, 50 µg/ml membrane proteins, 30°C, 10 min, Michaelis-Menten fit", "procedure": "Phosphatasic activity of bovine, rat and human washed cortical membranes was measured by using synthetic phosphopeptides as substrates. Reactions were performed in presence of 50 µg/ml (total proteins) of washed cortical membrane, 10 mM Hepes-Tris pH 7.4 and 1 mM MgCl2. Enzymatic reactions were initiated by adding 10 µM of phosphopeptide incubated for 10 min at 30°C and stopped by adding ice-cold acetic acid at a final concentration of 10% (w/v). Following a 800 g centrifugation during 10 min at 4°C, the supernatants were analyzed by LC-MS/MS. This centrifugation step was critical to remove membrane suspension that interferes with nano-LC and MS analysis. For these reasons, and to avoid micro-capillary column obstruction we have preferentially used the micro-LC column to characterize the pharmacological profile of phosphatasic activities.\nThe best conditions of incubation time and total protein concentration of washed cortical membranes were determined for assaying phosphatase activity with 10 µM of pI2α1 phosphopeptide. Protein concentration varied from 1 to 300 µg/ml and incubation time from 0.25 to 30 min, at fixed temperature of 30°C as in previous studies. Initial velocity of the enzymatic reaction was determined by linear regression (slope value). The optimal conditions were obtained with 50 µg/ml total membrane protein concentration and 10 min incubation time. The effects of the substrate effects were measured by varying the pI2α1N-P and pI2α1C-P concentrations between 3 and 75 µM. Saturation plots were generated via non-linear fit to the Michaelis-Menten equation. The affinity constant (Km) and maximum velocity (Vmax) were evaluated from this curve fitting using the Prism 5 computer program (GraphPad). Double-reciprocal plots with the Lineweaver-Burk equation were also drawn by linear fits using the same software.\nFigure 2 LC-MS/MS detection and kinetics analysis of GABAAR α1-subunit phosphatase activities. (A) Dose-dependency at various protein concentrations; (B) time course of phosphatase activities using 50 µg/ml of total proteins of washed cortical membranes from bovine brain and (C) from human epileptic tissue. The N-terminal phosphopeptide (pI2α1N-P) used as substrate at 10 µM was incubated during 10 min at 30°C in 10 mM Hepes (pH 7.4) in the presence of 1 mM Mg^2+. The enzymatic reactions were stopped with 10% acetic acid and the samples were analyzed by LC-MS/MS as in figure 1E, F. The dephosphorylation rate was quantified by measuring simultaneously the quantity of the produced native peptide (pI2α1N) and of the remaining phosphorylated substrate (pI2α1N-P). Error bars represent SEM of two experiments. Kinetic analysis of GABAAR α1-subunit phosphatase activities was investigated using N-terminal (pI2α1N-P) and C-terminal (pI2α1C-P) phosphopeptides. All experiments were carried out with 50 µg/ml membrane proteins concentration, incubated at 30°C during 10 min, in presence of different concentrations of substrates. (D) Saturation plot of the initial velocity Vi versus [pI2α1N-P] and Lineweaver-Burk plots of 1/V versus 1/[pI2α1N-P] […] (E) Saturation plot of Vi versus [pI2α1C-P] and Lineweaver-Burk plot of 1/V versus 1/[pI2α1C-P] (inset). The data points are means ± SEM of 3 experiments."}, "[7]": {"settings": "read-out: IC50 (H), high affinity"}, "[8]": {"settings": "read-out: IC50 (L), low affinity"}},
  "note": "Like-named read-outs stand apart in the source and are kept apart here. Non-standard residues stand in square brackets, D forms with d. No end group written: not given here. pT = C[C@@H](OP(=O)(O)O)[C@H](N)C(=O)O; pS = N[C@@H](COP(=O)(O)O)C(=O)O",
  "data": [
    {"molecule": "Brc1ccc(C2CN3CCSC3=N2)cc1.O=C(O)C(=O)O", "note": "(single isomer, unassigned; (+)) [(+)-p--Br--t, (+)-p-bromotetramisole oxalate]", "values": [
      {"measurement": "inhibition of alkaline phosphatase", "setting": "alkaline phosphatase", "value": "completely insensitive"},
      {"measurement": "inhibition of membrane phosphatase activities", "setting": "[1]; 1 mM", "value": "completely inhibited"},
      {"measurement": "IC50", "setting": "[1]", "value": 100, "unit": "µM"}
    ]},
    {"molecule": "Brc1ccc(C2CN3CCSC3=N2)cc1.O=C(O)C(=O)O", "note": "(single isomer, unassigned; (-)) [(−)-p--Br--t, (−)-p-bromotetramisole oxalate]", "values": [
      {"measurement": "inhibition of alkaline phosphatase", "setting": "alkaline phosphatase", "value": "potent alkaline phosphatase inhibitor"},
      {"measurement": "inhibition of membrane phosphatase activities", "setting": "[1]; 1 mM", "value": "completely inhibited"},
      {"measurement": "IC50", "setting": "[1]", "value": 300, "unit": "µM"}
    ]},
    {"molecule": "[Ca+2].[Cl-].[Cl-]", "note": "[Ca^2+, CaCl2]", "values": [
      {"measurement": "inhibition of phosphatase activities", "setting": "[1]; 1 mM", "value": 30, "unit": "%"},
      {"measurement": "inhibition of phosphatase activities", "setting": "[1]; 10 mM", "value": "less than 60%"},
      {"measurement": "IC50", "setting": "[1]", "value": "~5000", "unit": "µM"}
    ]},
    {"molecule": "[Cl-].[Cl-].[Mg+2]", "note": "[Mg^2+, MgCl2]", "values": [
      {"measurement": "effect of increasing concentration on phosphatase activities", "setting": "[1]; 1 µM to 1 mM, data not shown", "value": "moderate but not linear increase"}
    ]},
    {"molecule": "NCCCNCCCCNCCCN", "note": "[Spermine, spermine]", "values": [
      {"measurement": "inhibition of phosphatase activities", "setting": "[1]; 1 mM", "value": 10, "unit": "%"},
      {"measurement": "inhibition of phosphatase activities", "setting": "[1]; 10 mM", "value": 20, "unit": "%"},
      {"measurement": "IC50", "setting": "[1]", "value": "> 10000", "unit": "µM"}
    ]},
    {"molecule": "[Cl-].[Cl-].[Zn+2]", "note": "[Zn^2+, Zinc chloride]", "values": [
      {"measurement": "inhibition of membrane-bound phosphatase activity", "setting": "[2]; concentrations between 0.1 µM-1 mM", "value": "inhibited"},
      {"measurement": "inhibition of GABAAR dephosphorylation", "setting": "[2]; washed brain membranes, autoradiographic method", "value": "complete inhibition"},
      {"measurement": "effect on phosphatasic activities at low concentrations", "setting": "[3]; 1 pM–200 nM Zn2+, substrate pI2α1N-P", "value": "several activations"},
      {"measurement": "inhibition of phosphatase activities", "setting": "[3]; 1 mM Zn2+, substrate pI2α1N-P", "value": "completely inhibited"},
      {"measurement": "IC50", "setting": "[3]; [7]", "value": 1.7, "unit": "µM"},
      {"measurement": "IC50", "setting": "[3]; [8]", "value": 48, "unit": "µM"},
      {"measurement": "inhibition of phosphatase activities", "setting": "[4]; 1 mM Zn2+, substrate pI2α1C-P", "value": "completely inhibited"},
      {"measurement": "IC50", "setting": "[4]; [7]", "value": 0.6, "unit": "µM"},
      {"measurement": "IC50", "setting": "[4]; [8]", "value": 15, "unit": "µM"}
    ]},
    {"molecule": "[F-].[Na+]", "note": "[fluoride (F^−), sodium fluoride]", "values": [
      {"measurement": "inhibition of phosphatase activities", "setting": "[1]; 1 mM", "value": 45, "unit": "%"},
      {"measurement": "inhibition of phosphatase activities", "setting": "[1]; 10 mM", "value": "~90", "unit": "%"},
      {"measurement": "IC50", "setting": "[1]; listed as Sodium fluoride", "value": "< 2000", "unit": "µM"},
      {"measurement": "IC50", "setting": "[1]", "value": "~2000", "unit": "µM"}
    ]},
    {"molecule": "[Na+].[Na+].[Na+].[O]=[V]([O-])([O-])[O-]", "note": "[sodium orthovanadate]", "values": [
      {"measurement": "effect on rundown of GABAA currents", "setting": "[5]", "value": "reduced rundown"},
      {"measurement": "inhibition of membrane phosphatases", "setting": "[2]", "value": "inhibits"}
    ]},
    {"molecule": "EPKKTFNSV[pS]KIDR [pI2α1C-P]", "values": [
      {"measurement": "reduction in catalytic efficiency (Vmax/Km) compared to the phosphothreonine peptide PI2α1N-P", "setting": "[6]", "value": "eightfold reduction"},
      {"measurement": "Km", "setting": "[6]", "value": "116 ± 20", "unit": "µM"},
      {"measurement": "Vmax", "setting": "[6]", "value": "1290±150", "unit": "pM.min^−1.ml^−1"}
    ]},
    {"molecule": "NYF[pT]KRGYAWDGK [pI2α1N-P]", "values": [
      {"measurement": "Km", "setting": "[6]", "value": "25.4 ± 3.3", "unit": "µM"},
      {"measurement": "Vmax", "setting": "[6]", "value": "2320±130", "unit": "pM.min^−1.ml^−1"}
    ]}
  ]
}
